# Source: ChEMBL document CHEMBL2311509, “Synthesis and antiproliferative evaluation of 3-phenylquinolinylchalcone derivatives against non-small cell lung cancers and breast cancers” (Eur J Med Chem, 2013)
# Tested on: not listed separately
# Assay: Antiproliferative activity against human H184B5F5/M10 cells after 72 hrs by XTT assay
# Type: functional, cell-based
# Conditions: H184B5F5/M10, 72 h
row,Structure (SMILES),IC50 [µM]
1,COc1ccc(-c2cc3ccccc3nc2/C=C/C(=O)c2ccc([N+](=O)[O-])cc2)cc1,6.1
2,COc1ccc(-c2cc3ccccc3nc2/C=C/C(=O)c2ccccc2)cc1,8.56
3,COc1ccc(-c2cc3ccccc3nc2C=O)cc1,> 10
4,COc1ccc(-c2cc3ccccc3nc2/C=C/C(=O)c2sccc2N)cc1,> 10
5,COc1ccc(-c2cc3ccccc3nc2/C=C/C(=O)c2ccc(OC)c(OC)c2)cc1,7.24
6,COc1ccc(-c2cc3ccccc3nc2/C=C/C(=O)c2ccsc2)cc1,6.39
7,COc1ccc(C(=O)/C=C/c2nc3ccccc3cc2-c2ccc(OC)cc2)cc1,> 10
8,COc1ccc(-c2cc3ccccc3nc2/C=C/C(=O)c2cccs2)cc1,7.03
9,CC[C@@]1(O)C(=O)OCc2c1cc1n(c2=O)Cc2cc3c(CN(C)C)c(O)ccc3nc2-1 [TOPOTECAN],> 10
10,COc1ccc(-c2cc3ccccc3nc2/C=C/C(=O)c2c(OC)cccc2OC)cc1,4.47

# Tested on: SK-BR-3
# Assay: Antiproliferative activity against human SKBR3 cells after 72 hrs by XTT assay
# Type: functional, cell-based
# Conditions: SK-BR-3, 72 h
row,Structure (SMILES),IC50 [µM]
1,COc1ccc(-c2cc3ccccc3nc2/C=C/C(=O)c2ccc([N+](=O)[O-])cc2)cc1,0.59
2,COc1ccc(-c2cc3ccccc3nc2/C=C/C(=O)c2ccccc2)cc1,0.7
3,COc1ccc(-c2cc3ccccc3nc2/C=C/C(=O)c2sccc2N)cc1,> 10
4,COc1ccc(-c2cc3ccccc3nc2/C=C/C(=O)c2ccc(OC)c(OC)c2)cc1,3.26
5,COc1ccc(C(=O)/C=C/c2nc3ccccc3cc2-c2ccc(OC)cc2)cc1,9.28

# Other lines, results leading:
row,IC50 [µM],Structure (SMILES)
1,> 10,COc1ccc(-c2cc3ccccc3nc2C=O)cc1
2,0.66,COc1ccc(-c2cc3ccccc3nc2/C=C/C(=O)c2ccsc2)cc1
3,0.8,COc1ccc(-c2cc3ccccc3nc2/C=C/C(=O)c2cccs2)cc1
4,8.91,CC[C@@]1(O)C(=O)OCc2c1cc1n(c2=O)Cc2cc3c(CN(C)C)c(O)ccc3nc2-1 [TOPOTECAN]
5,3.83,COc1ccc(-c2cc3ccccc3nc2/C=C/C(=O)c2c(OC)cccc2OC)cc1

# Tested on: MDA-MB-231
# Assay: Antiproliferative activity against human MDA-MB-231 cells after 72 hrs by XTT assay
# Type: functional, cell-based
# Conditions: MDA-MB-231, 72 h
row,Structure (SMILES),IC50 [µM]
1,COc1ccc(-c2cc3ccccc3nc2/C=C/C(=O)c2ccc([N+](=O)[O-])cc2)cc1,0.84
2,COc1ccc(-c2cc3ccccc3nc2/C=C/C(=O)c2ccccc2)cc1,0.86
3,COc1ccc(-c2cc3ccccc3nc2/C=C/C(=O)c2sccc2N)cc1,> 10
4,COc1ccc(-c2cc3ccccc3nc2/C=C/C(=O)c2ccc(OC)c(OC)c2)cc1,4.79
5,COc1ccc(C(=O)/C=C/c2nc3ccccc3cc2-c2ccc(OC)cc2)cc1,7.54

# More lines, now with the values ahead:
row,IC50 [µM],Structure (SMILES)
1,> 10,COc1ccc(-c2cc3ccccc3nc2C=O)cc1
2,1.06,COc1ccc(-c2cc3ccccc3nc2/C=C/C(=O)c2ccsc2)cc1
3,0.41,COc1ccc(-c2cc3ccccc3nc2/C=C/C(=O)c2cccs2)cc1
4,< 0.1,CC[C@@]1(O)C(=O)OCc2c1cc1n(c2=O)Cc2cc3c(CN(C)C)c(O)ccc3nc2-1 [TOPOTECAN]
5,5.63,COc1ccc(-c2cc3ccccc3nc2/C=C/C(=O)c2c(OC)cccc2OC)cc1

# Tested on: MCF7
# Assay: Antiproliferative activity against human MCF7 cells after 72 hrs by XTT assay
# Type: functional, cell-based
# Conditions: MCF7, 72 h
row,Structure (SMILES),IC50 [µM]
1,COc1ccc(-c2cc3ccccc3nc2/C=C/C(=O)c2ccc([N+](=O)[O-])cc2)cc1,4.11
2,COc1ccc(-c2cc3ccccc3nc2/C=C/C(=O)c2ccccc2)cc1,4.04
3,COc1ccc(-c2cc3ccccc3nc2/C=C/C(=O)c2sccc2N)cc1,> 10
4,COc1ccc(-c2cc3ccccc3nc2/C=C/C(=O)c2ccc(OC)c(OC)c2)cc1,6.03
5,COc1ccc(C(=O)/C=C/c2nc3ccccc3cc2-c2ccc(OC)cc2)cc1,7.38

# Other lines, results leading:
row,IC50 [µM],Structure (SMILES)
1,> 10,COc1ccc(-c2cc3ccccc3nc2C=O)cc1
2,6.01,COc1ccc(-c2cc3ccccc3nc2/C=C/C(=O)c2ccsc2)cc1
3,1.03,COc1ccc(-c2cc3ccccc3nc2/C=C/C(=O)c2cccs2)cc1
4,5.97,CC[C@@]1(O)C(=O)OCc2c1cc1n(c2=O)Cc2cc3c(CN(C)C)c(O)ccc3nc2-1 [TOPOTECAN]
5,4.52,COc1ccc(-c2cc3ccccc3nc2/C=C/C(=O)c2c(OC)cccc2OC)cc1

# Tested on: A549
# Assay: Antiproliferative activity against human A549 cells after 72 hrs by XTT assay
# Type: functional, cell-based
# Conditions: A549, 72 h
row,Structure (SMILES),IC50 [µM]
1,COc1ccc(-c2cc3ccccc3nc2/C=C/C(=O)c2ccc([N+](=O)[O-])cc2)cc1,6.31
2,COc1ccc(-c2cc3ccccc3nc2/C=C/C(=O)c2ccccc2)cc1,7.41
3,COc1ccc(-c2cc3ccccc3nc2/C=C/C(=O)c2sccc2N)cc1,> 10
4,COc1ccc(-c2cc3ccccc3nc2/C=C/C(=O)c2ccc(OC)c(OC)c2)cc1,8.86
5,COc1ccc(C(=O)/C=C/c2nc3ccccc3cc2-c2ccc(OC)cc2)cc1,8.5

# Further lines, results first:
row,IC50 [µM],Structure (SMILES)
1,> 10,COc1ccc(-c2cc3ccccc3nc2C=O)cc1
2,8.21,COc1ccc(-c2cc3ccccc3nc2/C=C/C(=O)c2ccsc2)cc1
3,0.92,COc1ccc(-c2cc3ccccc3nc2/C=C/C(=O)c2cccs2)cc1
4,7.41,COc1ccc(-c2cc3ccccc3nc2/C=C/C(=O)c2c(OC)cccc2OC)cc1

# Tested on: not listed separately
# Assay: Antiproliferative activity against human H460 cells after 72 hrs by XTT assay
# Type: functional, cell-based
# Conditions: NCI-H460, 72 h
row,Structure (SMILES),IC50 [µM]
1,COc1ccc(-c2cc3ccccc3nc2/C=C/C(=O)c2ccc([N+](=O)[O-])cc2)cc1,6.47
2,COc1ccc(-c2cc3ccccc3nc2/C=C/C(=O)c2ccccc2)cc1,6.67
3,COc1ccc(-c2cc3ccccc3nc2C=O)cc1,> 10
4,COc1ccc(-c2cc3ccccc3nc2/C=C/C(=O)c2sccc2N)cc1,> 10
5,COc1ccc(-c2cc3ccccc3nc2/C=C/C(=O)c2ccc(OC)c(OC)c2)cc1,7.54
6,COc1ccc(-c2cc3ccccc3nc2/C=C/C(=O)c2ccsc2)cc1,7.08
7,COc1ccc(C(=O)/C=C/c2nc3ccccc3cc2-c2ccc(OC)cc2)cc1,> 10
8,COc1ccc(-c2cc3ccccc3nc2/C=C/C(=O)c2cccs2)cc1,5.44
9,CC[C@@]1(O)C(=O)OCc2c1cc1n(c2=O)Cc2cc3c(CN(C)C)c(O)ccc3nc2-1 [TOPOTECAN],7.29
10,COc1ccc(-c2cc3ccccc3nc2/C=C/C(=O)c2c(OC)cccc2OC)cc1,6.63

# Tested on: not listed separately
# Assay: Antiproliferative activity against human H1299 cells after 72 hrs by XTT assay
# Type: functional, cell-based
# Conditions: NCI-H1299, 72 h
row,Structure (SMILES),IC50 [µM]
1,COc1ccc(-c2cc3ccccc3nc2/C=C/C(=O)c2ccc([N+](=O)[O-])cc2)cc1,0.77
2,COc1ccc(-c2cc3ccccc3nc2/C=C/C(=O)c2ccccc2)cc1,1.41
3,COc1ccc(-c2cc3ccccc3nc2C=O)cc1,> 10
4,COc1ccc(-c2cc3ccccc3nc2/C=C/C(=O)c2sccc2N)cc1,> 10
5,COc1ccc(-c2cc3ccccc3nc2/C=C/C(=O)c2ccc(OC)c(OC)c2)cc1,1.05
6,COc1ccc(-c2cc3ccccc3nc2/C=C/C(=O)c2ccsc2)cc1,1.22
7,COc1ccc(C(=O)/C=C/c2nc3ccccc3cc2-c2ccc(OC)cc2)cc1,6.42
8,COc1ccc(-c2cc3ccccc3nc2/C=C/C(=O)c2cccs2)cc1,0.72
9,CC[C@@]1(O)C(=O)OCc2c1cc1n(c2=O)Cc2cc3c(CN(C)C)c(O)ccc3nc2-1 [TOPOTECAN],6.02
10,COc1ccc(-c2cc3ccccc3nc2/C=C/C(=O)c2c(OC)cccc2OC)cc1,4.71

# Tested on: MDA-MB-231
# Assay: Growth inhibition of human MDA-MB-231 cells
# Type: functional
# Conditions: not given
row,GI50 [µM],Structure (SMILES)
1,0.72,Fc1ccc2nc(-c3ccc(OCCN4CCCCC4)cc3)c(-c3ccc(OCCN4CCCCC4)cc3)cc2c1

# Tested on: not listed separately
# Assay: Growth inhibition of human H1299 cells
# Type: functional
# Conditions: NCI-H1299
row,Structure (SMILES),GI50 [µM]
1,Fc1ccc2nc(-c3ccc(OCCN4CCCCC4)cc3)c(-c3ccc(OCCN4CCCCC4)cc3)cc2c1,1.46

# Tested on: not listed separately
# Assay: Growth inhibition of human Hep3B cells
# Type: functional, Hep 3B2
# Conditions: not given
row,Structure (SMILES),GI50 [µM]
1,Fc1ccc2nc(-c3ccc(OCCN4CCCCC4)cc3)c(-c3ccc(OCCN4CCCCC4)cc3)cc2c1,0.71
